According to PubChem BioAssay AID330 (DTP/NCI, 2004):
Several values for one entry are separate records, joined by “and”; a condition that tells them apart may be missing. Identical values can stand only once. Toxic doses and inconclusive results are not listed.

Test system: P388 leukemia ip, CD2F1 mice, survival T/C
Assay: NCI In Vivo Anticancer Drug Screen. Data for tumor model P388 Leukemia (intraperitoneal) in CD2F1 (CDF1) mice
Details: endpoint: median survival time, higher = longer survival
Procedure, shortened: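 Mice carrying the transplanted tumor received test compound or vehicle. Survival was recorded in each group, and the value is the treated-group measurement divided by that of the vehicle-treated control group.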

[1] = dose: 50.0 mg/kg/injection, schedule: Q01DX005 (ip), vehicle: Klucel (hydroxypropylcellulose) (HPC)
[2] = dose: 100.0 mg/kg/injection, schedule: Q01DX005 (ip), vehicle: Klucel (hydroxypropylcellulose) (HPC)
[3] = dose: 200.0 mg/kg/injection, schedule: Q01DX005 (ip), vehicle: Klucel (hydroxypropylcellulose) (HPC)

For O=C(/C=C/c1cccnc1)/C=C/c1cccnc1, the T/C (dose: 6.25 mg/kg/injection, schedule: Q01DX009 (ip), vehicle: Klucel (hydroxypropylcellulose) (HPC)) was 122 % of control, the T/C (dose: 12.5 mg/kg/injection, schedule: Q01DX009 (ip), vehicle: Klucel (hydroxypropylcellulose) (HPC)) was 124 % of control and the T/C (dose: 25.0 mg/kg/injection, schedule: Q01DX009 (ip), vehicle: Klucel (hydroxypropylcellulose) (HPC)) was 124 % of control. The T/C (dose: 50.0 mg/kg/injection, schedule: Q01DX009 (ip), vehicle: Klucel (hydroxypropylcellulose) (HPC)) was 120 % of control.
In the case of CCOC(=O)Nc1nc2ccccc2n1CN1CCCC1, the T/C (dose: 25.0 mg/kg/injection, schedule: Q01DX005 (ip), vehicle: Klucel (hydroxypropylcellulose) (HPC)) is reported as 112 % of control, the T/C [1] is reported as 111 % of control and the T/C [2] is reported as 114 % of control. The T/C [3] was 117 % of control.
With COc1cc2c(cc1[N+](=O)[O-])C(=O)CCCC2 the T/C (dose: 100.0 mg/kg/injection, schedule: Q01DX009 (sc), vehicle: olive oil, sesame oil, peanut oil) was 104 % of control, the T/C (dose: 200.0 mg/kg/injection, schedule: Q01DX009 (sc), vehicle: olive oil, sesame oil, peanut oil) was 100 % of control and the T/C (dose: 400.0 mg/kg/injection, schedule: Q01DX009 (sc), vehicle: olive oil, sesame oil, peanut oil) was 107 % of control.
In the case of O=C1c2ccccc2C(=O)N1OCc1ccccc1[N+](=O)[O-], the T/C [1] is reported as 102 % of control, the T/C [2] is reported as 101 % of control and the T/C [3] is reported as 90 % of control.
For CCN(CC)Cc1cc(Nc2c3ccc([N+](=O)[O-])cc3nc3ccc(OC)cc23)ccc1O, the T/C (dose: 50.0 mg/kg/injection, schedule: Q01DX005 (ip), vehicle: saline) was 99 % of control, the T/C (dose: 100.0 mg/kg/injection, schedule: Q01DX005 (ip), vehicle: saline) was 103 % of control and the T/C (dose: 200.0 mg/kg/injection, schedule: Q01DX005 (ip), vehicle: saline) was 101 % of control.
With O=c1cc(-c2ccc(OCc3ccccc3)cc2)oc2c(-c3c(OCc4ccccc4)cc(OCc4ccccc4)c4c(=O)cc(-c5ccc(OCc6ccccc6)cc5)oc34)c(OCc3ccccc3)cc(OCc3ccccc3)c12 the T/C (dose: 100.0 mg/kg/injection, schedule: Q01DX001 (ip), vehicle: Klucel (hydroxypropylcellulose) (HPC)) was 95 % of control, the T/C (dose: 200.0 mg/kg/injection, schedule: Q01DX001 (ip), vehicle: Klucel (hydroxypropylcellulose) (HPC)) was 92 % of control and the T/C (dose: 400.0 mg/kg/injection, schedule: Q01DX001 (ip), vehicle: Klucel (hydroxypropylcellulose) (HPC)) was 103 % of control.
In the case of COCc1ccnn1-c1ccccc1C, the T/C (dose: 60.0 mg/kg/injection, schedule: Q01DX005 (ip), vehicle: saline with Tween-80) is reported as 97 % of control, the T/C (dose: 120.0 mg/kg/injection, schedule: Q01DX005 (ip), vehicle: saline with Tween-80) is reported as 97 % of control and the T/C (dose: 240.0 mg/kg/injection, schedule: Q01DX005 (ip), vehicle: saline with Tween-80) is reported as 104 % of control.
CCOC(=O)c1ccc(N=NN2CN3CN(C2)CN(N=Nc2ccc(C(=O)OCC)cc2)C3)cc1 was tested, and the T/C (dose: 25.0 mg/kg/injection, schedule: Q04DX002 (ip), vehicle: Klucel (hydroxypropylcellulose) (HPC)) was 99 % of control, the T/C (dose: 50.0 mg/kg/injection, schedule: Q04DX002 (ip), vehicle: Klucel (hydroxypropylcellulose) (HPC)) was 104 % of control and the T/C (dose: 100.0 mg/kg/injection, schedule: Q04DX002 (ip), vehicle: Klucel (hydroxypropylcellulose) (HPC)) was 100 % of control and 87 % of control.
In the case of CCCOc1ccc(-c2nc(-c3ccc(N=Cc4ccc(N(CCOS(C)(=O)=O)CCOS(C)(=O)=O)cc4C)cc3)cs2)cc1, the T/C (dose: 3.12 mg/kg/injection, schedule: Q01DX009 (ip), vehicle: saline with Tween-80) is reported as 160 % of control, the T/C (dose: 6.25 mg/kg/injection, schedule: Q01DX009 (ip), vehicle: saline with Tween-80) is reported as 180 % of control and the T/C (dose: 12.5 mg/kg/injection, schedule: Q01DX009 (ip), vehicle: saline with Tween-80) is reported as 156 % of control and 166 % of control and 197 % of control. The T/C (dose: 25.0 mg/kg/injection, schedule: Q01DX009 (ip), vehicle: saline with Tween-80) was 164 % of control and the T/C (dose: 50.0 mg/kg/injection, schedule: Q01DX009 (ip), vehicle: saline with Tween-80) was 110 % of control and 118 % of control.
For CCN=C1C=C/C(=C(/c2ccc(NCC)c(C)c2)c2cc(O)c(S(=O)(=O)O)cc2S(=O)(=O)O)C=C1C, the T/C (dose: 60.0 mg/kg/injection, schedule: Q01DX005 (ip), vehicle: saline) was 107 % of control, the T/C (dose: 120.0 mg/kg/injection, schedule: Q01DX005 (ip), vehicle: saline) was 106 % of control and the T/C (dose: 240.0 mg/kg/injection, schedule: Q01DX005 (ip), vehicle: saline) was 102 % of control.
With Cc1[nH]nc2c1NC(=O)OCC2 the T/C (dose: 50.0 mg/kg/injection, schedule: Q01DX005 (ip), vehicle: saline with Tween-80) was 101 % of control, the T/C (dose: 100.0 mg/kg/injection, schedule: Q01DX005 (ip), vehicle: saline with Tween-80) was 101 % of control and the T/C (dose: 200.0 mg/kg/injection, schedule: Q01DX005 (ip), vehicle: saline with Tween-80) was 101 % of control.
COC(=O)/C(C#N)=C/c1ccc2c(c1)OCO2 was tested, and the T/C [1] was 100 % of control, the T/C [2] was 97 % of control and the T/C [3] was 100 % of control.
COC(=O)Cc1cc(=O)[nH][nH]1 was tested, and the T/C (dose: 50.0 mg/kg/injection, schedule: Q01DX001 (ip), vehicle: suspension in saline) was 93 % of control, the T/C (dose: 100.0 mg/kg/injection, schedule: Q01DX001 (ip), vehicle: suspension in saline) was 95 % of control and the T/C (dose: 200.0 mg/kg/injection, schedule: Q01DX001 (ip), vehicle: suspension in saline) was 86 % of control.
For [Cl][Sn][Cl].c1cnc2c(c1)ccc1cccnc12, the T/C (dose: 100.0 mg/kg/injection, schedule: Q04DX003 (ip), vehicle: saline with Tween-80) was 97 % of control and the T/C (dose: 200.0 mg/kg/injection, schedule: Q04DX003 (ip), vehicle: saline with Tween-80) was 112 % of control.
